Test results published in publication PMC6691385, “Au Hollow Nanorods-Chimeric Peptide Nanocarrier for NIR-II Photothermal Therapy and Real-time Apoptosis Imaging for Tumor Theranostics” (Theranostics, 2019).

What was measured:
[1] = tested on: HeLa cells; test: MTT cytotoxicity assay; format: cell-based; conditions: 10 ppm; cells treated with AuHNRs-DTPP and laser
Description: The in vitro cytotoxicity of AuHNRs-DTPP nanocarrier against HeLa cells were studied by standard MTT assay. In brief, HeLa cells were seeded on 96-well plates with a density of 5000 cells per well. When the cell density came to 80%, the medium was removed and various concentrations of AuHNRs-DTPP nanocarrier in DMEM with 10% FBS were added. After incubation for 6 h, the medium was replaced by 200 μL of fresh medium. For none-treated group or single laser treated group, cells received corresponding treatment and then further incubated for 48 h. And for combined treatment group, cells received 1064 nm laser irradiation and incubated for 2 h. After that, cells received laser irradiation (633 nm) and then further incubated for 48 h. Then, the standard MTT assay was conducted to determine the cell viability. And for COS-7, same operation process was taken.

[2] = tested on: H22 tumor; test: In vivo fluorescence imaging; conditions: tumor bearing mice; i.v.; before laser irradiation, within 8 h
Description: Animal experiments were conducted based on the guidelines for laboratory animals established by the Huazhong Agricultural University. In vivo imaging started when tumor volume approximated 200 mm^3. For photothermal imaging 200 μL AuHNRs-DTPP was intravenously injected into the mice, and the equal volume of PBS buffer was taken as the control. Infrared thermal images were recorded by using a FLIR E85 camera under 1064 nm laser irradiation at a power density of 0.69 W·cm^-2. In vivo fluorescence imaging was collected by a Maestro in vivo imaging system. The tumor bearing mice were intravenously administrated with 200 μL AuHNRs-DTPP (1 g·L^-1) or free DTPP (30 mg·L^-1) solution. Then the mice were anesthetized and imaged at pre-set time. It should be noted that mice received 1064 nm laser irradiation (10 min, 0.69 W·cm^-2) at the 8th h post-injection.

[3] = Solubility of DTPP; format: physicochemical
[4] = Fluorescence, ROS and singlet oxygen generation, cell-free

Compound	effect on cell viability as ROS scavenger [1]	in vivo fluorescence signal [2]	solubility in DI water ([3]; DI water)	solubility in PBS ([3]; PBS)	singlet oxygen ESR signal ([4]; treated with laser)	singlet oxygen ESR signal ([4]; without laser irradiation)
O=C1O[C@H]([C@@H](O)CO)C(O)=C1O [Vitamin C]	significantly improve the cell viability	–	–	–	–	–
PpIX-PEG8-GGK(TPP)GRDEVDGC [DTPP]	–	fluorescence signal appeared all over the body	almost insoluble	good solubility	obvious ESR signal	no ESR signal
